According to patent US20210290527A1, “Compositions and Methods for Treatment of Ocular Conditions” (EyeGate Pharmaceuticals, Inc., priority 2020, published 2021):
Where two headings read alike, the source gives them in different places. Values belong to the compound of their own block, whether it stands above or below them.

Columns and labels:
[1] = in water; cited from earlier work
[2] = pH measured with a pH meter; type: physicochemical
Procedure: (§1) RI was measured with a refractometer and pH was measured with a pH meter.

[3] = Procedure: as §1
[4] = Rheological testing, parallel plate rheometer: viscosity and shear-thinning; type: physicochemical
Procedure: Thiol-modified carboxymethyl HA (CMHA-S) was synthesized as described in Lawyer et al. and Wendling et al., with a thiol modification of 0.1, 0.2, 0.4, or 0.7 μmol thiol/mg. Hydrogels were created by dissolving CMHA-S in phosphate-buffered saline (PBS; pH 7.4). The CMHA-S was disulfide crosslinked under continuous mixing with the addition of sodium hypochlorite. Rheological testing was performed using a parallel plate format rheometer with a 25 mm-diameter stainless steel geometry. Samples (5-6 ml) of hydrogel were placed in a 35 mm Petri dish, and the geometry was lowered to a gap of 5 mm. To determine viscosity and shear-thinning, the shear rate was varied from 0.1 to 10 Hz. A decreasing viscosity as shear rate increases indicates shear-thinning behavior.
Viscosity was determined as described in Example 1.

[5] = Release of therapeutic from hydrogel in medi-dialysis chamber into PBS; type: physicochemical; details: therapeutic at 1 mg/ml, over 24 hours, dialysis chamber MWCO 50 kDa, UV spectroscopy
Procedure: FIGS. 3A, 3B, 3C, and 3D show the release of therapeutic from hydrogel (“OBG”; blue circles on the graphs) or PBS (green circles on the graphs) into PBS in a medi-dialysis chamber (MWCO, 50 kDa) over time.
The release was monitored over 24 hours and compared to release of the therapeutic from solution in PBS. For this assessment, a 0.5 ml sample of hydrogel plus therapeutic or PBS plus therapeutic was placed into a medi-dialysis chamber, and the chamber was placed in a beaker containing 100 ml of PBS. The remaining amount of therapeutic in the dialysis chamber was monitored using UV spectroscopy at various time points.

[6] = LE 2.5 mg/ml in CMHA-S hydrogel
[7] = PredA 1 mg/ml in CMHA-S hydrogel
[8] = PredA 5 mg/ml in CMHA-S hydrogel
[9] = PredA 10 mg/ml in CMHA-S hydrogel
[10] = drug incorporated at 1 mg/ml in CMHA-S hydrogel

pH ([2]; LE 1 mg/ml in CMHA-S hydrogel): 7.11
pH [2, 6]: 7.24
pH ([2]; LE 5 mg/ml in CMHA-S hydrogel): 7.55
RI ([3]; LE 1 mg/ml in CMHA-S hydrogel): 1.3355
RI [3, 6]: 1.3354
RI ([3]; LE 5 mg/ml in CMHA-S hydrogel): 1.3353
Viscosity at 2.5 Hz ([4]; LE 1 mg/ml in CMHA-S hydrogel): 2.3 Pa · s
Viscosity at 2.5 Hz [4, 6]: 2.7 Pa · s
Viscosity at 2.5 Hz ([4]; LE 5 mg/ml in CMHA-S hydrogel): 3.3 Pa · s
release from the hydrogel compared to release from PBS [5]: reduced compared to its release from PBS
Structure (SMILES): CCOC(=O)O[C@]1(C(=O)OCCl)CC[C@H]2[C@@H]3CCC4=CC(=O)C=C[C@]4(C)[C@H]3[C@@H](O)C[C@@]21C [LE, loteprednol etabonate]
water solubility [1]: less than 0.001 mg/ml

pH [2, 7]: 7.09
pH [2, 8]: 7.13
pH [2, 9]: 7.17
Viscosity at 2.5 Hz [4, 7]: 2.0 Pa · s
Viscosity at 2.5 Hz [4, 8]: 2.7 Pa · s
Viscosity at 2.5 Hz [4, 9]: 3.0 Pa · s
Structure (SMILES): CC(=O)OCC(=O)[C@@]1(O)CC[C@H]2[C@@H]3CCC4=CC(=O)C=C[C@]4(C)[C@H]3[C@@H](O)C[C@@]21C [PredA, prednisolone acetate]

Structure (SMILES): C[C@@H]1C[C@H]2[C@@H]3CCC4=CC(=O)C=C[C@]4(C)[C@@]3(F)[C@@H](O)C[C@]2(C)[C@@]1(O)C(=O)CO [Dexamethasone, dexamethasone]
water solubility [1]: less than 0.09 mg/ml

pH [2, 10]: 7.3
RI [3, 10]: 1.3353
Viscosity at 2.5 Hz [4, 10]: 1.1 Pa · s
Structure (SMILES): CN(C)CC/C=C1/c2ccccc2COc2ccc(CC(=O)O)cc21 [Olopatadine, olopatadine]
water solubility [1]: about 0.03 mg/ml
